# Results: US12421225B2, “Heteroaromatic amide derivative and medicament containing the same” (KAKEN PHARMACEUTICAL CO., LTD., priority 2018, dated 2025)
# Columns and labels:
# human Nav1.5 = human Nav1.5 (Homo sapiens (Human), UniProt Q14524); test: Human Nav1.5 inhibitory activity evaluation (automated patch clamp QPatch16X, HEK293 cells stably expressing human Nav1.5); format: cell-based
# Procedure: Test Example 2: Human Nav1.5 Inhibitory Activity Evaluation
# A cell line in which human Nav1.5 was stably expressed in HEK293 cells was used. DMEM supplemeted with 15% fetal bovine serum, 500 μg/ml geneticin, 100 units/ml penicillin, 100 μg/ml streptomycin, 20 mM HEPES was used as culture medium under the conditions of 37° C. and 5% CO2 in T175 flasks to carry out culturing. When 60-80% confluence was reached, a cell suspension of about 0.5-5.0×10^6 cells/mL was prepared. The amount of current through human Nav1.5 was recorded using a fully automatic patch clamp device QPatch16X at room temperature. As the extracellular solution, 145 mM NaCl, 4 mM KCl, 1 mM MgCl2, 2 mM CaCl2, 10 mM Glucose, and 10 mM HEPES at pH 7.4 was used. As the intracellular solution, 135 mM CsF, ⅕ mM EGTA/CsOH, 10 mM HEPES, and 10 mM NaCl at pH 7.3 was used. The test compounds were dissolved in DMSO and diluted with the extracellular solution to attend the DMSO concentration of 0.1% at the time of assay.
# The current response was obtained at a sampling frequency of 25 kHz, and noise was removed with a 3 kHz low-pass filter. The holding potential was −80 mV. Correction of the leakage current was carried out by applying a step pulse of −100 mV before the test pulse. In order to investigate human Nav1.5 inhibitory effect of the test compound, test pulses imitating the action potential of cardiomyocytes were continuously given 20 times. The test pulses were given before and after the test compound addition.
# The inhibitory activity of the test compound was determined based on the amount of inward current generated by the 20th depolarization pulse, and the 50% inhibitory concentration (IC50) was calculated from the concentration-response curve.
# human Nav1.7 = human Nav1.7 (Homo sapiens (Human), UniProt Q15858); test: Human Nav1.7 inhibitory activity evaluation (automated patch clamp QPatch16X, HEK293A cells stably expressing human Nav1.7 and human Navβ1); format: cell-based
# Summary of the method: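 IC50 calculated from the concentration-response of inward current evoked by the second −10 mV, 50 ms depolarisation, which follows a 15 s conditioning step at roughly 30-40% inactivation and a 100 ms −120 mV interval. Cells: HEK293A expressing human Nav1.7/Navβ1, automated patch clamp, room temperature, 0.1% DMSO final.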
# [1] = HEK293 cells stably expressing human Nav1.5, automated patch clamp QPatch16X
# [2] = HEK293A cells stably expressing human Nav1.7 and human Navβ1, automated patch clamp QPatch16X
# [3] = human Nav1.5, automated patch clamp
# [4] = human Nav1.7, automated patch clamp
# Sequence of human Nav1.5 (Q14524 whole entry): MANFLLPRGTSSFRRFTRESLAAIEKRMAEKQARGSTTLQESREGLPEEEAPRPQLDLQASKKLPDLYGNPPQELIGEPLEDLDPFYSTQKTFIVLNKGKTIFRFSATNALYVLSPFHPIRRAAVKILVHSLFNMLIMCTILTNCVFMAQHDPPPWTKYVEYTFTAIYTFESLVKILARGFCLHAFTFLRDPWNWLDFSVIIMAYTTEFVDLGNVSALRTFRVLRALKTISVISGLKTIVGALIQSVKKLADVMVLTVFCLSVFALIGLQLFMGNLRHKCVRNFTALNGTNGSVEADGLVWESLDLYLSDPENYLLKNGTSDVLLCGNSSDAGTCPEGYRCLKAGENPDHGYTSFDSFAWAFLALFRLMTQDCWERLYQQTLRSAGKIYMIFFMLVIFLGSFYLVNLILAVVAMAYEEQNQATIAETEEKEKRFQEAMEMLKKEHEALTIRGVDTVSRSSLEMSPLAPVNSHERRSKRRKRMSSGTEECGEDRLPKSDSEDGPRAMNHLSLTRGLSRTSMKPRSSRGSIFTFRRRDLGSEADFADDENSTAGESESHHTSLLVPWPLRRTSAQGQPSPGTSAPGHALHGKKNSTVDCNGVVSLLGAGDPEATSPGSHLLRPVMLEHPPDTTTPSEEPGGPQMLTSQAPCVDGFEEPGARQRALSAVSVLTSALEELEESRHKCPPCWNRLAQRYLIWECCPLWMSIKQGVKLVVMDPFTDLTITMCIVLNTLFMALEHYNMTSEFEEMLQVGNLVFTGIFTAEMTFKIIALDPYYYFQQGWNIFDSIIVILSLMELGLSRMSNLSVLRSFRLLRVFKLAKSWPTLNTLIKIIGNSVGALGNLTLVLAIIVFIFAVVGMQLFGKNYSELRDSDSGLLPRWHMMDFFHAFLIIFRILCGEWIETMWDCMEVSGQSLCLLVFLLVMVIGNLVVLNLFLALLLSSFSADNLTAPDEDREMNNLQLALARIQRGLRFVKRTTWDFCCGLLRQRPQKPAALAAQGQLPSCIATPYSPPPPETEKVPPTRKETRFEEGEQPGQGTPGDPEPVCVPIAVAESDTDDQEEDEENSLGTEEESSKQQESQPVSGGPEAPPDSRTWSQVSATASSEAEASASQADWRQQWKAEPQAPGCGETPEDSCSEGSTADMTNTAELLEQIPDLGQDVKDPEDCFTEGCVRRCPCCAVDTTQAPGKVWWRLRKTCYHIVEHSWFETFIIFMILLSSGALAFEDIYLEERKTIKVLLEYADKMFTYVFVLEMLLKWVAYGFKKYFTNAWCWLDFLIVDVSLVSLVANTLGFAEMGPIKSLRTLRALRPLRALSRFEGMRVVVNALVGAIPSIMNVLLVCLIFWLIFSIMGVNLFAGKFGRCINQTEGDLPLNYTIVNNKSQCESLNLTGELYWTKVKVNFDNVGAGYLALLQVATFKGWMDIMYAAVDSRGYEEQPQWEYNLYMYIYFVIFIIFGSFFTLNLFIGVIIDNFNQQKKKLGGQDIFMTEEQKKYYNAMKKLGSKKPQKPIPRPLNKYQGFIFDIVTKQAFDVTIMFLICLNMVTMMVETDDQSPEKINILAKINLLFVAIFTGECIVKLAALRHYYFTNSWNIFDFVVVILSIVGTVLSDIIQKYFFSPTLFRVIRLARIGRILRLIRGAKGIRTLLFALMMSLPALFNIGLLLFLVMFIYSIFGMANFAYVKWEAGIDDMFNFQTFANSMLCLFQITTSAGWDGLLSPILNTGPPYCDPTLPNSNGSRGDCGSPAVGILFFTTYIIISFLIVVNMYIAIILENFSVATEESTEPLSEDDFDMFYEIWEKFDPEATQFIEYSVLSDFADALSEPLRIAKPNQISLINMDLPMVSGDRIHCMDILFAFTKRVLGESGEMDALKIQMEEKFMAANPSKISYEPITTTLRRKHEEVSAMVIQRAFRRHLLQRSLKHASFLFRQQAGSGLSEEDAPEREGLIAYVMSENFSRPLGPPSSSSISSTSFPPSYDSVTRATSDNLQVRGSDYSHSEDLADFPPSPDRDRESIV
# Sequence of human Nav1.7 (Q15858 whole entry): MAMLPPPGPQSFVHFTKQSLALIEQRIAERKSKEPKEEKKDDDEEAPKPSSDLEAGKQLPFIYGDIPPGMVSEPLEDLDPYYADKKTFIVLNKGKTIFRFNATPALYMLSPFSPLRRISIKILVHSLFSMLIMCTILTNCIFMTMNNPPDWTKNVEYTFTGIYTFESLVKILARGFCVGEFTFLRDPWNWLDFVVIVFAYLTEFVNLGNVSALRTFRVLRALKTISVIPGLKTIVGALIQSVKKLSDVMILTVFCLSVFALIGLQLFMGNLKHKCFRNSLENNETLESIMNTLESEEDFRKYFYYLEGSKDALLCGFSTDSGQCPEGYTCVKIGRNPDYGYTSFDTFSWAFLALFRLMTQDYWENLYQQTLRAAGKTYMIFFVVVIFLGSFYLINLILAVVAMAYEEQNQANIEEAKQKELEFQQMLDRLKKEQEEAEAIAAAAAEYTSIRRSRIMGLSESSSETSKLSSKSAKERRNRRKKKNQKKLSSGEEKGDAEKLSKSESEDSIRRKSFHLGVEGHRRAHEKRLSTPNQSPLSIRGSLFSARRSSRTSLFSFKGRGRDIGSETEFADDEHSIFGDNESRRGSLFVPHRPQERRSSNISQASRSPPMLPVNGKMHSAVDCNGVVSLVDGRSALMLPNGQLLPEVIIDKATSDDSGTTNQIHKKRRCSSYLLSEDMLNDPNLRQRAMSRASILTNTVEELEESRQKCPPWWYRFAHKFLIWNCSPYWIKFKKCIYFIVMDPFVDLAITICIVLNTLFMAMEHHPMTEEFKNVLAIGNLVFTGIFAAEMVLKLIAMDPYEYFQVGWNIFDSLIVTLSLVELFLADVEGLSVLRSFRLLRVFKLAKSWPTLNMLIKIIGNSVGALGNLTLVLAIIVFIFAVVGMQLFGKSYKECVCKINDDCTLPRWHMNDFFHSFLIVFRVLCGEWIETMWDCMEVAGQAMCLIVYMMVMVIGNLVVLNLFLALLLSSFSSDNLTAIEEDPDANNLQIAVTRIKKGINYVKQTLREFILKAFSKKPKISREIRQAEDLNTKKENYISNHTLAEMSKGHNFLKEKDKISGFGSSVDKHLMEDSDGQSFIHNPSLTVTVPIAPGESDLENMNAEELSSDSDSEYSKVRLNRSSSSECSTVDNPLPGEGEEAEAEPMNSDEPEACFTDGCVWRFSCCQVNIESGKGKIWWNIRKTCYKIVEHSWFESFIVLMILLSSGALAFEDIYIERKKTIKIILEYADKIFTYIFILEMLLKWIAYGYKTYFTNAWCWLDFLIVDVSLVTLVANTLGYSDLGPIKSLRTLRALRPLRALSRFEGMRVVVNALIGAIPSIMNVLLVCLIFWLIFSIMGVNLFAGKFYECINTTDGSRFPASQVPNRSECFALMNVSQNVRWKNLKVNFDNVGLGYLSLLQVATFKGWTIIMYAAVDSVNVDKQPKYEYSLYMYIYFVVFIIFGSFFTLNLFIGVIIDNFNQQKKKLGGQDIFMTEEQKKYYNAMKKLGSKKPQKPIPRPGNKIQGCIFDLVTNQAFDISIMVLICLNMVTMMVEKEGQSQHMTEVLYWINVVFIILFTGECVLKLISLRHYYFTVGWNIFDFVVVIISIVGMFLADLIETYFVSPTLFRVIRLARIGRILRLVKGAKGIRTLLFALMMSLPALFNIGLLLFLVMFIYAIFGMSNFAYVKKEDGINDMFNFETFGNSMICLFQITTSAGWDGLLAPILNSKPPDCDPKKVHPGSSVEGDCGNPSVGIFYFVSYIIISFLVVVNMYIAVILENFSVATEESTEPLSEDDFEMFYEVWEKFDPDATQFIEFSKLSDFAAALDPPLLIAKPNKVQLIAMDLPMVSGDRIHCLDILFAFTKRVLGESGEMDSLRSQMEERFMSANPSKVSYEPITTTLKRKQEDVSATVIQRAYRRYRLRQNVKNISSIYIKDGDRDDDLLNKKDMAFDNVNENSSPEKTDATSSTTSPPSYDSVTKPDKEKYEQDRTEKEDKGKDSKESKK
# Sequence of human Nav1.7 (Q07699 19-218 partner): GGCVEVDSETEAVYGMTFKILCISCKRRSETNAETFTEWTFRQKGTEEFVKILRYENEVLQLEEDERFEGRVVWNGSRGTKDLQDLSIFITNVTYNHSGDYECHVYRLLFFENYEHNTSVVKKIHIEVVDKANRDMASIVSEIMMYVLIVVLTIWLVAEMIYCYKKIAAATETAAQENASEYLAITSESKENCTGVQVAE
Structure (SMILES),IC50 (human Nav1.7; [2]) [µM],IC50 (human Nav1.7; [4]) [µM],IC50 (human Nav1.5; [1]) [µM],IC50 (human Nav1.5; [3]) [µM]
"O=C(N[C@H]1COc2ccc(CC(F)F)cc2C1)c1cc2n(n1)CCC(COCC(F)(F)F)O2 (single isomer, unassigned) [127 (isomer A)]",< 1,–,≥ 3,–
Cc1ccc(C2Cn3cc(C(=O)N[C@H]4COc5ccccc5C4)nc3CN2)s1 (stereo partly drawn) [Example 43],< 10,–,≥ 3,–
"N#Cc1ccc2c(c1)C[C@@H](NC(=O)c1cc3n(n1)CC(CCOC(F)(F)F)O3)CO2 (single isomer, unassigned) [209 (isomer B)]",–,< 1,–,< 1
"COc1ncc(-c2ccc3c(c2)C[C@@H](NC(=O)c2cc4n(n2)CC(CCOCC2CC2)O4)CO3)cn1 (single isomer, unassigned) [204 (isomer B)]",–,< 1,–,1 to 3
"O=C(N[C@H]1COc2ccc(CC(F)F)cc2C1)c1cc2n(n1)CCC(COCC(F)(F)F)O2 (single isomer, unassigned) [127 (isomer B)]",–,–,≥ 3,–
"O=C(N[C@H]1COc2ccc(Cl)cc2C1)c1cc2n(n1)CCC(CNCC(F)(F)F)O2 (single isomer, unassigned) [152 (isomer B)]",–,–,–,≥ 3
"O=C(N[C@H]1COc2ccc(-c3ccccn3)cc2C1)c1cc2n(n1)CC(CCOCC(F)(F)F)O2 (single isomer, unassigned) [207 (isomer B)]",–,< 1,–,1 to 3
O=C(N[C@H]1COc2ccc(Cl)cc2C1)c1cn2c(n1)CCC(OCC(F)(F)F)C2 (stereo partly drawn) [Example 38],< 10,–,≥ 3,–
O=C(N[C@H]1COc2ccccc2C1)c1cn2c(n1)CCC(COc1ccccc1)C2 (stereo partly drawn) [Example 33],< 1,–,1 to 3,–
"O=C(N[C@H]1COc2ccc(C(F)(F)F)cc2C1O)c1cc2n(n1)CC(CCCOCC(F)F)O2 (single isomer, unassigned) [608 (isomer A)]",–,< 1,–,≥ 3
"N#Cc1ccc2c(c1)C[C@@H](NC(=O)c1cc3n(n1)CC(CCCOC(F)(F)F)O3)CO2 (single isomer, unassigned) [247 (isomer B)]",–,–,–,1 to 3
O=C(NC1COc2ccc(Br)cc2C1)c1cn2c(n1)CCC(C(F)(F)F)C2 (stereo not drawn) [Example 12],< 1,–,1 to 3,–
O=C(N[C@H]1COc2ccccc2C1)c1cn2c(n1)CNC(C1CCCC1)C2 (stereo partly drawn) [Example 59],< 10,–,≥ 3,–
"Cn1ccc(-c2ccc3c(c2)C[C@@H](NC(=O)c2cc4n(n2)CC(CCOC(F)(F)F)O4)CO3)n1 (single isomer, unassigned) [213 (isomer A)]",–,< 1,–,≥ 3
O=C(N[C@H]1COc2ccc(COCC(F)(F)F)cc2C1)c1nc2n(c1-c1ccn[nH]1)CCCC2 [Example 20],< 1,–,< 1,–
"CC1(COCC2CCn3nc(C(=O)N[C@H]4COc5ccc(C#N)cc5C4)cc3O2)CC1 (single isomer, unassigned) [113 (isomer B)]",< 1,–,< 1,–
"N#Cc1ccc2c(c1)C[C@@H](NC(=O)c1cc3n(n1)CC[C@H](COCC(F)(F)F)CO3)CO2 (single isomer, unassigned; isomer a) [572(isomer A)]",–,< 10,–,≥ 3
"O=C(N[C@H]1COc2ccc(COCC(F)(F)F)cc2C1)c1cc2n(n1)CC(CC1CCOCC1)O2 (single isomer, unassigned) [622 (isomer B)]",–,–,–,≥ 3
"O=C(N[C@H]1COc2ccc(CC(F)F)cc2C1)c1cc2n(n1)CCC(CCOC(F)F)O2 (single isomer, unassigned) [148 (isomer B)]",–,–,–,≥ 3
"O=C(N[C@H]1COc2ccc(C(F)(F)F)cc2C1)c1cc2n(n1)CCC(OCC(F)(F)F)CO2 (single isomer, unassigned) [257 (isomer B)]",–,–,–,≥ 3
"O=C(N[C@H]1COc2ccc(CC(F)F)cc2C1)c1cc2n(n1)CC(CCOC(F)(F)F)O2 (single isomer, unassigned) [211 (isomer B)]",–,–,–,< 1
"CCCC1CCn2nc(C(=O)N[C@H]3COc4ccc(C#N)cc4C3)cc2O1 (single isomer, unassigned) [95 (isomer B)]",–,–,≥ 3,–
"O=C(N[C@H]1COc2ccc(-c3ccccn3)cc2C1)c1cc2n(n1)CCC(COCC1CC1)O2 (single isomer, unassigned) [111 (isomer B)]",–,–,1 to 3,–
"N#Cc1ccc2c(c1)C[C@@H](NC(=O)c1cc3n(n1)CCC(CC1CC1)O3)CO2 (single isomer, unassigned) [97 (isomer B)]",–,–,≥ 3,–
"Cn1ccc(-c2ccc3c(c2)C[C@@H](NC(=O)c2cc4n(n2)CC(CCOCC(F)(F)F)O4)CO3)n1 (single isomer, unassigned) [206 (isomer B)]",–,–,–,≥ 3
O=C(N[C@H]1COc2ccc(Br)cc2C1)c1cc2n(n1)CC(C(F)(F)F)O2 (stereo partly drawn) [Example 445],–,–,–,≥ 3
"O=C(N[C@H]1COc2ccc(COCC(F)(F)F)cc2C1)c1cc2n(n1)CCC(CCOC(F)F)O2 (single isomer, unassigned) [150 (isomer B)]",–,–,–,1 to 3

# Further lines, with some results ahead:
IC50 (human Nav1.7; [2]) [µM],IC50 (human Nav1.7; [4]) [µM],Structure (SMILES),IC50 (human Nav1.5; [1]) [µM],IC50 (human Nav1.5; [3]) [µM]
–,< 1,N#Cc1ccc2c(c1)C[C@@H](NC(=O)c1cc3n(n1)CCC(CCOC(F)(F)F)O3)CO2 (stereo partly drawn) [Example 143],–,≥ 3
–,< 1,O=C(N[C@H]1COc2ccc(COCC(F)(F)F)cc2C1)c1cc2n(n1)CCC(CCOC(F)F)O2 (stereo partly drawn) [Example 149],–,1 to 3
–,< 1,O=C(N[C@H]1COc2ccc(-c3cnccn3)cc2C1)c1cc2n(n1)CC(CCOC(F)F)O2 (stereo partly drawn) [Example 222],–,≥ 3
–,< 1,O=C(N[C@H]1COc2ccccc2C1)c1cc2n(n1)CCC(c1ccccc1)O2 (stereo partly drawn) [Example 349],–,1 to 3
–,< 10,O=C(N[C@H]1COc2ccc(C(F)F)cc2C1)c1cc2n(n1)CCN(Cc1ccccn1)C2 [Example 492],–,≥ 3
–,< 1,O=C(N[C@H]1COc2ccc(COCC(F)(F)F)cc2C1)c1cc2n(n1)CCC(C(F)F)O2 (stereo partly drawn) [Example 162],–,≥ 3
–,< 10,"O=C(N[C@H]1COc2ccc(C(F)(F)F)cc2C1O)c1cc2n(n1)CCC(COCC(F)(F)F)CO2 (single isomer, unassigned) [Example 683]",–,≥ 3
–,< 1,N#Cc1ccc2c(c1)C[C@@H](NC(=O)c1cc3n(n1)CCN(CCC1CCC1)C3)CO2 [Example 496],–,1 to 3
–,< 1,O=C(N[C@H]1COc2ccc(Cl)cc2C1)c1cc2n(n1)CCN(CC(F)(F)C1CC1)C2 [Example 495],–,≥ 3
–,< 1,N#Cc1ccc2c(c1)C[C@@H](NC(=O)c1cc3n(n1)CCC(COCC(F)(F)C(F)(F)F)O3)CO2 (stereo partly drawn) [Example 412],–,1 to 3
–,< 1,O=C(N[C@H]1COc2ccc(Br)cc2C1)c1cc2n(n1)CCC(C(F)(F)F)O2 (stereo partly drawn) [Example 171],–,1 to 3
< 10,–,O=C(N[C@H]1COc2ccc(Cl)cc2C1)c1cc2n(n1)CCC(CN1CCOCC1)O2 (stereo partly drawn) [Example 122],≥ 3,–
< 1,–,COc1cccc(-c2c(C(=O)N[C@H]3COc4ccc(Cl)cc4C3)nc3n2CCOC3)n1 [Example 65],< 1,–
–,< 1,N#Cc1ccc2c(c1)C[C@@H](NC(=O)c1cc3n(n1)CCN(Cc1ccccc1F)C3)CO2 [Example 497],–,≥ 3
–,< 1,O=C(N[C@H]1COc2ccc(COCC(F)(F)F)cc2C1)c1cc2n(n1)CCN(CCC(F)(F)F)C2 [Example 507],–,≥ 3
< 10,–,CCC1CCn2nc(C(=O)N[C@H]3COc4ccc(C#N)cc4C3)cc2O1 (stereo partly drawn) [Example 91],≥ 3,–
–,< 1,N#Cc1ccc2c(c1)C[C@@H](NC(=O)c1cc3n(n1)CC(C(F)(F)COCC1CC1)O3)CO2 (stereo partly drawn) [Example 541],–,≥ 3
